Assay results: the NIST ThermoML archive (doi:10.1021/acs.jced.7b00221)

Experiment: xn = mol fraction of the nth substance listed
Details: 100 kPa, Liquid; for viscosity: Cone and plate viscometry; for mass density: Vibrating tube method

CCCCCCCC[P+](CC)(CC)CC.O=[N+]([O-])c1cn[n-]c1 [triethyloctylphosphonium 4-nitropyrazolide] + CCCCCC[n+]1ccn(C)c1.O=S(=O)([N-]S(=O)(=O)C(F)(F)F)C(F)(F)F
Details | mass density [kg/m3] | viscosity [mPa·s]
278.15 K, x1 = 0.126 | – | 267
278.15 K, x1 = 0.25 | – | 358
278.15 K, x1 = 0.499 | – | 680
278.15 K, x1 = 0.75 | – | 1046
278.15 K, x1 = 0.898 | – | 1242
283.15 K, x1 = 0.126 | 1340 | 191
283.15 K, x1 = 0.25 | 1296.5 | 251
283.15 K, x1 = 0.499 | 1209.6 | 456
283.15 K, x1 = 0.75 | 1124.3 | 682
283.15 K, x1 = 0.898 | 1074.4 | 804
283.15 K, x1 = 1 | 1040.7 | –
288.15 K, x1 = 0.126 | 1335.5 | 140
288.15 K, x1 = 0.25 | 1292.3 | 180
288.15 K, x1 = 0.499 | 1205.8 | 314
288.15 K, x1 = 0.75 | 1120.9 | 457
288.15 K, x1 = 0.898 | 1071.2 | 535
288.15 K, x1 = 1 | 1037.7 | –
293.15 K, x1 = 0.126 | 1331.1 | 106
293.15 K, x1 = 0.25 | 1288.2 | 133
293.15 K, x1 = 0.499 | 1201.9 | 223
293.15 K, x1 = 0.75 | 1117.5 | 317
293.15 K, x1 = 0.898 | 1068 | 369
293.15 K, x1 = 1 | 1034.6 | –
295.15 K, x1 = 0.126 | 1329.4 | –
295.15 K, x1 = 0.25 | 1286.5 | –
295.15 K, x1 = 0.499 | 1200.4 | –
295.15 K, x1 = 0.75 | 1116.1 | –
295.15 K, x1 = 0.898 | 1066.8 | –
295.15 K, x1 = 1 | 1033.4 | –
298.15 K, x1 = 0.126 | 1326.7 | 82
298.15 K, x1 = 0.25 | 1284.1 | 102
298.15 K, x1 = 0.499 | 1198.2 | 164
298.15 K, x1 = 0.75 | 1114.1 | 227
298.15 K, x1 = 0.898 | 1064.8 | 263
298.15 K, x1 = 1 | 1031.5 | –
303.15 K, x1 = 0.126 | 1322.4 | 66
303.15 K, x1 = 0.25 | 1280 | 79
303.15 K, x1 = 0.499 | 1194.5 | 124
303.15 K, x1 = 0.75 | 1110.7 | 168
303.15 K, x1 = 0.898 | 1061.7 | 192
303.15 K, x1 = 1 | 1028.5 | –
308.15 K, x1 = 0.126 | 1318.1 | 53
308.15 K, x1 = 0.25 | 1275.9 | 63
308.15 K, x1 = 0.499 | 1190.9 | 96
308.15 K, x1 = 0.75 | 1107.5 | 127
308.15 K, x1 = 0.898 | 1058.6 | 145
308.15 K, x1 = 1 | 1025.5 | –
313.15 K, x1 = 0.126 | 1313.8 | –
313.15 K, x1 = 0.25 | 1271.8 | 52
313.15 K, x1 = 0.499 | 1187.2 | 73
313.15 K, x1 = 0.75 | 1104.2 | 99
313.15 K, x1 = 0.898 | 1055.5 | 110
313.15 K, x1 = 1 | 1022.6 | –
318.15 K, x1 = 0.126 | 1309.6 | –
318.15 K, x1 = 0.25 | 1267.7 | –
318.15 K, x1 = 0.499 | 1183.5 | 59
318.15 K, x1 = 0.75 | 1100.9 | 77
318.15 K, x1 = 0.898 | 1052.5 | 83
318.15 K, x1 = 1 | 1019.6 | –
323.15 K, x1 = 0.126 | 1305.4 | –
323.15 K, x1 = 0.25 | 1263.7 | –
323.15 K, x1 = 0.499 | 1179.9 | –
323.15 K, x1 = 0.75 | 1097.6 | 62
323.15 K, x1 = 0.898 | 1049.4 | 67
323.15 K, x1 = 1 | 1016.7 | –
328.15 K, x1 = 0.126 | 1301.2 | –
328.15 K, x1 = 0.25 | 1259.6 | –
328.15 K, x1 = 0.499 | 1176.2 | –
328.15 K, x1 = 0.75 | 1094.3 | –
328.15 K, x1 = 0.898 | 1046.3 | –
328.15 K, x1 = 1 | 1013.8 | –
333.15 K, x1 = 0.126 | 1297 | –
333.15 K, x1 = 0.25 | 1255.5 | –
333.15 K, x1 = 0.499 | 1172.6 | –
333.15 K, x1 = 0.75 | 1091.1 | –
333.15 K, x1 = 0.898 | 1043.3 | –
333.15 K, x1 = 1 | 1010.8 | –
338.15 K, x1 = 0.126 | 1292.8 | –
338.15 K, x1 = 0.25 | 1251.5 | –
338.15 K, x1 = 0.499 | 1169 | –
338.15 K, x1 = 0.75 | 1087.8 | –
338.15 K, x1 = 0.898 | 1040.2 | –
338.15 K, x1 = 1 | 1007.9 | –
343.15 K, x1 = 0.126 | 1288.7 | –
343.15 K, x1 = 0.25 | 1247.5 | –
343.15 K, x1 = 0.499 | 1165.3 | –
343.15 K, x1 = 0.75 | 1084.6 | –
343.15 K, x1 = 0.898 | 1037.2 | –
343.15 K, x1 = 1 | 1005 | –
348.15 K, x1 = 0.126 | 1284.5 | –
348.15 K, x1 = 0.25 | 1243.5 | –
348.15 K, x1 = 0.499 | 1161.7 | –
348.15 K, x1 = 0.75 | 1081.3 | –
348.15 K, x1 = 0.898 | 1034.1 | –
348.15 K, x1 = 1 | 1002.1 | –
353.15 K, x1 = 0.126 | 1280.3 | –
353.15 K, x1 = 0.25 | 1239.5 | –
353.15 K, x1 = 0.499 | 1158.1 | –
353.15 K, x1 = 0.75 | 1078.1 | –
353.15 K, x1 = 0.898 | 1031.1 | –
353.15 K, x1 = 1 | 999.2 | –
